Test: recombinant barcode read abundance after kanamycin selection (control-corrected) (log10(CPM+1)); higher = more efficient recombination; sequences stand for … in AGTGCAGAGAAAATCGGCCAGTTTTCTCTGCCTGCAGTCCGCATGCCGT…AGATTTATGCAGCGGACTGCCTTTCTCCCAAAGTGATAAACCGGACAGTATCATGGACCGGTTTTCCCGGTAATCCGTATTTGCAAGGTTGGTTTCACT; site = the 11-nt target
Method: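 Pooled E. coli target-specificity screen for the IS621 bridge recombinase. Each library plasmid pairs an 11-nt target (CT core) with a bridge RNA whose target-binding loop (9-nt LTG + 4-nt RTG) is reprogrammed; the rest of the 177-nt WT IS621 bridge RNA scaffold is fixed. The plasmid is co-electroporated with a WT donor plasmid; recombinase is induced with 0.1 mM IPTG and recombinants are selected on kanamycin. Recombinant barcodes are sequenced, converted to CPM, averaged over two biological replicates and corrected by the unselected control CPM. Molecule = full bridge RNA written as DNA: LTG = specificity nt 1-9, RTG = reverse complement of specificity nt 8-11, in the WT scaffold.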
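Note: IS621 recombinase and bridge RNA in Escherichia coli cells.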

| Sequence | recombinant barcode read abundance (log10) |
| --- | --- |
| AAGGCTTCTTGGGTTCTAACCTGTTGCCT (site AAGGCTTCTAG) | 1.4 |
| AAGGGGTCTTGGGTTCTAACCTGTTGCCT (site AAGGGGTCTAG) | 2.93 |
| AAGGGGTCTTGGGTTCTAACCTGTTGCCT (site TACGGGTCTAG) | 0.112 |
| AAGGTCCCTTGGGTTCTAACCTGTTGCCA (site AAGGTCCCTTG) | 1.85 |
| AAGGTCCCTTGGGTTCTAACCTGTTGCCA (site AAGGTTCCTTA) | 0.0911 |
| AAGTCGTCTTGGGTTCTAACCTGTTGCCT (site AAGTCGTCTAG) | 0.832 |
| AAGTCGTCTTGGGTTCTAACCTGTTGCCT (site ACGTCGTCTAG) | 0.0906 |
| AAGTCGTCTTGGGTTCTAACCTGTTGCCT (site AGGTCGTCTAG) | 0.126 |
| AAGTCGTCTTGGGTTCTAACCTGTTGCCT (site ATGTCGTCTAG) | 0.0249 |
| AAGTCGTCTTGGGTTCTAACCTGTTGCTA (site AAGTCGTCTTA) | 0.857 |
| AAGTCGTCTTGGGTTCTAACCTGTTGCTA (site GCAATTGCTAG) | 0.132 |
| AAGTGCTCTTGGGTTCTAACCTGTTGCCG (site AAGTGCTCTCG) | 1.89 |
| AAGTGCTCTTGGGTTCTAACCTGTTGCCG (site AGGTGCCCTCG) | 0.0892 |
| AAGTTTCCTTGGGTTCTAACCTGTTGCAT (site AAGTGTCCTAT) | 0.118 |
| AAGTTTCCTTGGGTTCTAACCTGTTGCAT (site AAGTTTCCTAT) | 0.22 |
| AATAACTCTTGGGTTCTAACCTGTTGCCT (site AATAACTCTAG) | 0.863 |
| AATAACTCTTGGGTTCTAACCTGTTGCCT (site CATAACTCTAG) | 0.0701 |
| AATAACTCTTGGGTTCTAACCTGTTGCCT (site GATAACTCTAG) | 0.111 |
| AATAACTCTTGGGTTCTAACCTGTTGCCT (site TATAACTCTAG) | 0.139 |
| AATAAGTCTTGGGTTCTAACCTGTTGCCT (site AATAAGTCTAG) | 0.483 |
| AATAAGTCTTGGGTTCTAACCTGTTGCCT (site ACTAAGTCTAG) | 0.0757 |
| AATAAGTCTTGGGTTCTAACCTGTTGCCT (site AGTAAGTCTAG) | 0.566 |

| Sequence | recombinant barcode read abundance (log10) |
| --- | --- |
| AATAAGTCTTGGGTTCTAACCTGTTGCCT (site ATTAAGTCTAG) | 0.122 |
| AATAGAGCTTGGGTTCTAACCTGTTGCAG (site AAGTGAGCTCT) | 0.0557 |
| AATAGAGCTTGGGTTCTAACCTGTTGCAG (site AATAGAGCTCT) | 2.23 |
| AATAGGACTTGGGTTCTAACCTGTTGCTA (site AATAAGACTTG) | 0.0927 |
| AATAGGACTTGGGTTCTAACCTGTTGCTA (site AATAGGACTTA) | 0.896 |
| AATAGGGCTTGGGTTCTAACCTGTTGCGG (site AATAGGGCTCC) | 2.21 |
| AATAGGGCTTGGGTTCTAACCTGTTGCGG (site ACTAGGGCTCC) | 0.294 |
| AATCGGCCTTGGGTTCTAACCTGTTGCGT (site AATAGGCCTAC) | 0.375 |
| AATCGGCCTTGGGTTCTAACCTGTTGCGT (site AATCGGCCTAC) | 1.85 |
| AATCGGCCTTGGGTTCTAACCTGTTGCGT (site AATGGGCCTAC) | 0.0625 |
| AATCGGCCTTGGGTTCTAACCTGTTGCGT (site AATTGGCCTAC) | 0.175 |
| AATGCTACTTGGGTTCTAACCTGTTGCAT (site AATGCTACTAT) | 0.235 |
| AATGCTACTTGGGTTCTAACCTGTTGCAT (site TATGCTACTAT) | 0.238 |
| AATGCTCCTTGGGTTCTAACCTGTTGCGT (site AATGCTCCTAA) | 0.116 |
| AATGCTCCTTGGGTTCTAACCTGTTGCGT (site AATGCTCCTAC) | 2.03 |
| AATGCTCCTTGGGTTCTAACCTGTTGCGT (site AATGCTCCTAG) | 0.419 |
| AATGCTCCTTGGGTTCTAACCTGTTGCGT (site AATGCTCCTAT) | 0.177 |
| AATGCTCCTTGGGTTCTAACCTGTTGCTT (site AATGCTCCTAA) | 0.49 |
| AATGCTCCTTGGGTTCTAACCTGTTGCTT (site AATGCTCCTAC) | 0.0515 |
| AATGCTCCTTGGGTTCTAACCTGTTGCTT (site AATGCTCCTAG) | 0.103 |
| AATGCTCCTTGGGTTCTAACCTGTTGCTT (site AATGCTCCTAT) | 0.135 |
| AATGCTTCTTGGGTTCTAACCTGTTGCTT (site AATGCTTCTAA) | 0.398 |

| Sequence | recombinant barcode read abundance (log10) |
| --- | --- |
| AATGCTTCTTGGGTTCTAACCTGTTGCTT (site GATGCTTCTAA) | 0.143 |
| AATGGGACTTGGGTTCTAACCTGTTGCGA (site AATGGGACTCA) | 0.331 |
| AATGGGACTTGGGTTCTAACCTGTTGCGA (site AATGGGACTTC) | 2.42 |
| AATGGGACTTGGGTTCTAACCTGTTGCTG (site AATGGGACTCA) | 2.47 |
| AATGGGACTTGGGTTCTAACCTGTTGCTG (site AATGGGACTTC) | 1.55 |
| AATGGTCCTTGGGTTCTAACCTGTTGCCA (site AATGGTCCTTG) | 0.588 |
| AATGGTCCTTGGGTTCTAACCTGTTGCCA (site CTAATATCTAT) | 0.337 |
| AATTAGTCTTGGGTTCTAACCTGTTGCGG (site AATTAGTCTCC) | 2.2 |
| AATTAGTCTTGGGTTCTAACCTGTTGCGG (site AGTTAGTCTCC) | 0.312 |
| AATTGAGCTTGGGTTCTAACCTGTTGCCT (site AATTAAGCTAG) | 0.0773 |
| AATTGAGCTTGGGTTCTAACCTGTTGCCT (site AATTCAGCTAG) | 0.0625 |
| AATTGAGCTTGGGTTCTAACCTGTTGCCT (site AATTGAGCTAG) | 0.887 |
| AATTGAGCTTGGGTTCTAACCTGTTGCCT (site AATTTAGCTAG) | 0.242 |
| AATTGCCCTTGGGTTCTAACCTGTTGCCT (site AATTGCCCTAG) | 0.369 |
| AATTGCCCTTGGGTTCTAACCTGTTGCCT (site ACTTGCCCTAG) | 0.00964 |
| AATTGCCCTTGGGTTCTAACCTGTTGCCT (site AGTTGCCCTAG) | 0.0557 |
| AATTGCCCTTGGGTTCTAACCTGTTGCCT (site ATTTGCCCTAG) | 0.166 |
| AATTGGACTTGGGTTCTAACCTGTTGCTT (site AATTGGACTAA) | 0.355 |
| AATTGGACTTGGGTTCTAACCTGTTGCTT (site CATTGGACTAA) | 0.0957 |
| AATTGGACTTGGGTTCTAACCTGTTGCTT (site GATTGGACTAA) | 0.0807 |
| AATTGGACTTGGGTTCTAACCTGTTGCTT (site TATTGGACTAA) | 0.455 |
| AATTGTCCTTGGGTTCTAACCTGTTGCGT (site AATTGTCCTAA) | 0.0377 |

Source: the supplement of paper PMC11208160
